Structures are written as SMILES.

As usually defined, the melting point is the temperature, or range, at which the solid turns liquid. The term IC50 denotes the concentration that gives 50% inhibition. The low end stands for greater potency in that assay, the high end for weaker potency in that assay.

System in the first series: not given
Test: not given
Conditions: not given
`CCNC(=O)Nc1ccc(-c2ccc(C(=O)N3CC4CCCC(C3)N4C)o2)cc1.O=C(O)/C=C/C(=O)O` showed a melting point of 154 to 161 °C.
On the same count and under the same terms, under `CN1C2CCCC1CN(C(=O)c1ccc(-c3ccc(N)cc3)o1)C2` [Compound B1] stands 147 to 149 °C.
Still for that read-out and setting: with `CC(=O)Nc1ccc(-c2ccc(C(=O)N3CC4CCCC(C3)N4C)o2)cc1.O=C(O)/C=C/C(=O)O` the figure was 197 to 229 °C; with `CN1C2CCCC1CN(C(=O)c1ccc(-c3ccc([N+](=O)[O-])cc3)o1)C2.Cl`, 263 °C.
Same read-out and setting: under `CN1C2CCCC1CN(C(=O)c1ccc(-c3ccc(NC(=O)c4ccccc4)cc3)o1)C2.O=C(O)/C=C/C(=O)O` stands 246 to 252 °C.

A further series deals with T1, α7-subtype of nicotinic receptors (Rattus norvegicus, UniProt Q05941).
T1 construct: Cerebral cortices from male Wistar rats (150-250 g) are homogenised; from tissue; host or cells: rat cerebral cortex membrane homogenate
T1 sequence (Q05941 23-502): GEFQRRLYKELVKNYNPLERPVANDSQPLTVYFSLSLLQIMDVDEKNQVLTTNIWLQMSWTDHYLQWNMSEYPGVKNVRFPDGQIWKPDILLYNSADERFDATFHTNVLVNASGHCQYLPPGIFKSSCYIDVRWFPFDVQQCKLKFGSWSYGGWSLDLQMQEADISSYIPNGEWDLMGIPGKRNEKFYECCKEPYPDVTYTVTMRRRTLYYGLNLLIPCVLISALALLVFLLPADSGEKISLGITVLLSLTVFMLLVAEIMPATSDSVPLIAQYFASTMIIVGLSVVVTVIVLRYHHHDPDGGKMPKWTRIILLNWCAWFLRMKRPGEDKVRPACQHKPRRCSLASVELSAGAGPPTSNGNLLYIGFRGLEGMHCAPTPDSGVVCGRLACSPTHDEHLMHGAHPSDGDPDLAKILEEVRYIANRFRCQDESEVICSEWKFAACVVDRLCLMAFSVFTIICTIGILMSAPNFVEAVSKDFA
As to the kind of experiment: In vitro inhibition of 3H-α-bungarotoxine binding in rat brain. To be noted: rat cerebral cortex homogenate, 3H-α-bungarotoxine 2 nM.
With `CN1C2CCCC1CN(C(=O)c1ccc(-c3ccc(N)cc3)o1)C2` [Compound B1], the IC50 is 420 nM.

For the origin of these results see patent US7855208B2, “3, 9-diazabicyclo(3.3.1)non-3-yl-aryl methanone derivatives as nicotinic acetylcholine receptor agonists” (NeuroSearch A/S, priority 2006, dated 2010).
